Assay results taken from patent publication US8716312B2, “Inhibitors of diacylglycerol acyltransferase” (Merck Sharp & Dohme Corporation, priority 2008, dated 2014).

Biological target: T1, human DGAT1 enzyme (Homo sapiens, UniProt O75907)
T1 sequence (O75907 1-488): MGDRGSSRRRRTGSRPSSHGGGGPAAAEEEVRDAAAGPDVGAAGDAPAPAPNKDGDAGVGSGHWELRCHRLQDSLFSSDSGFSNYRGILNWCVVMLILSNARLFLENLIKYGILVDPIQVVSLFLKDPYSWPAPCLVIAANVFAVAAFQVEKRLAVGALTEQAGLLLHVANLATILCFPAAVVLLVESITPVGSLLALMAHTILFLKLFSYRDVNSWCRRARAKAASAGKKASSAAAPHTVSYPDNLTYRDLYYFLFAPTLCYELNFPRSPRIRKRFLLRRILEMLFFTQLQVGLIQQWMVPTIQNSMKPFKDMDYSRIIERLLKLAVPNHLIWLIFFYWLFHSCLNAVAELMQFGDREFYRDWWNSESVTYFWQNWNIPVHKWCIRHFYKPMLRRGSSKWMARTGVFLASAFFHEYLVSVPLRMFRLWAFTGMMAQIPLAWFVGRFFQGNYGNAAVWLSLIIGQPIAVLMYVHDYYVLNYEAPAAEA
Experiment: in vitro DGAT1 inhibition assay (microsomes, [14C]-palmitoyl-CoA, SPA beads)
Protocol: The in vitro assay to identify DGAT1 inhibitors uses human DGAT1 enzyme expressed in Sf9 insect cells prepared as microsomes. The reaction is initiated by the addition of the combined substrates 1,2-dioleoyl-sn-glycerol and [^14C]-palmitoyl-Co A and incubated with test compounds and microsomal membranes for 2 hours at room temperature. The assay is stopped by adding 0.5 mg wheat germ agglutinin beads in assay buffer with 1% Brij-35 and 1% 3-cholamidopropyldimethyl-ammonio-1-propane sulfonate. Plates are sealed with TopSeal and incubated for 18 hours to allow the radioactive triglyceride product to come into proximity with the bead. Plates are read on a TopCount instrument.
Percent inhibition was calculated as the percent of (test compound inhibition minus non-specific binding) relative to (total binding minus non-specific binding). IC50 values were determined by curve fitting the data to a Sigmoidal dose-response in GraphPad Prism utilizing the following equation: Y=A+(B−A)/(1+10^((Log IC50−X))), where A and B are the bottom and top of the curve (highest and lowest inhibition), respectively, and X is the logarithm of concentration.

IC50	SMILES
101 to 500 nM	CC1CCCN(c2nc(C(F)(F)F)c(C(=O)Nc3ccc(NC4CN(C(=O)Nc5ccccc5F)C4)nc3)o2)C1 (centres unmarked) [Compound 223, N-(6-(1-(2-fluorophenylcarbamoyl)azetidin-3-ylamino)pyridin-3-yl)-2-(3-methylpiperidin-1-yl)-4-(trifluoromethyl)oxazole-5-carboxamide]
11 to 100 nM	O=C(Nc1ccc(N2CCN(C(=O)Cc3c(F)cccc3F)CC2)nc1)c1oc(N2CCC(c3ccccc3)CC2)nc1C(F)(F)F [Compound 229, N-(6-(4-(2-(2,6-difluorophenyl)acetyl)piperazin-1-yl)pyridin-3-yl)-2-(4-phenylpiperidin-1-yl)-4-(trifluoromethyl)oxazole-5-carboxamide]
11 to 100 nM	CC1CCCN(c2nc(C(F)(F)F)c(C(=O)Nc3ccc(N4CCN(C(=O)C(O)C(F)(F)F)CC4)nc3)o2)C1 (centres unmarked) [Compound 194, 2-(3-methylpiperidin-1-yl)-N-(6-(4-(3,3,3-trifluoro-2-hydroxypropanoyl)piperazin-1-yl)pyridin-3-yl)-4-(trifluoromethyl)oxazole-5-carboxamide]
101 to 500 nM	O=C(Nc1ccc(N2CCN(c3nc4ccccc4o3)CC2)nc1)c1oc(N2CCC(c3ccccc3)CC2)nc1C(F)(F)F [Compound 236]
11 to 100 nM	CC1CCCN(c2nc(C(F)(F)F)c(C(=O)Nc3ccc(N4CCC(OCc5cccc(C(=O)O)c5)CC4)nc3)o2)C1 (centres unmarked) [Compound 254, 3-((1-(5-(2-(3-methylpiperidin-1-yl)-4-(trifluoromethyl)oxazole-5-carboxamido)pyridin-2-yl)piperidin-4-yloxy)methyl)benzoic acid]
101 to 500 nM	N#C/N=C(/N1CCCC1)N1CCN(c2ccc(NC(=O)c3oc(N4CCC(c5ccccc5)CC4)nc3C(F)(F)F)cn2)CC1 [Compound 182, (Z)—N-(6-(4-((cyanoimino)(pyrrolidin-1-yl)methyl)piperazin-1-yl)pyridin-3-yl)-2-(4-phenylpiperidin-1-yl)-4-(trifluoromethyl)oxazole-5-carboxamide]
101 to 500 nM	O=C(Nc1ccc(N2CCN(C(=O)C3Cc4ccccc4C3)CC2)nc1)c1oc(N2CCC(c3ccccc3)CC2)nc1C(F)(F)F [Compound 244, N-(6-(4-(2,3-dihydro-1H-indene-2-carbonyl)piperazin-1-yl)pyridin-3-yl)-2-(4-phenylpiperidin-1-yl)-4-(trifluoromethyl)oxazole-5-carboxamide]
11 to 100 nM	O=C(Nc1ccc(N2CCN(C(=O)[C@H](O)C3CCCCC3)CC2)nc1)c1oc(N2CCC(c3cccc(Cl)c3)C2)nc1C(F)(F)F (stereo partly drawn) [Compound 213, N-(6-(4-((R)-2-cyclohexyl-2-hydroxyacetyl)piperazin-1-yl)pyridin-3-yl)-2-(3-(3-chlorophenyl)pyrrolidin-1-yl)-4-(trifluoromethyl)oxazole-5-carboxamide]
101 to 500 nM	CC1CCCN(c2nc(C(F)(F)F)c(C(=O)Nc3ccc(N4CCCN(C(=O)[C@H]5CC[C@@H](C(=O)O)CC5)CC4)nc3)o2)C1 (some centres unmarked) [Compound 185, (1s,4s)-4-(4-(5-(2-(3-Methylpiperidin-1-yl)-4-(trifluoromethyl)oxazole-5-carboxamido)pyridin-2-yl)-1,4-diazepane-1-carbonyl)cyclohexanecarboxylic acid]
11 to 100 nM	CC1CCCN(c2nc(C(F)(F)F)c(C(=O)Nc3ccc(N4CCC(OCc5ccccc5C(=O)O)CC4)nc3)o2)C1 (centres unmarked) [Compound 255, 2-((1-(5-(2-(3-methylpiperidin-1-yl)-4-(trifluoromethyl)oxazole-5-carboxamido)pyridin-2-yl)piperidin-4-yloxy)methyl)benzoic acid]
101 to 500 nM	O=C(Nc1ccc(N2CCN(C(=O)Cc3ccccc3O)CC2)nc1)c1oc(N2CCC(c3ccccc3)CC2)nc1C(F)(F)F [Compound 226, N-(6-(4-(2-(2-hydroxyphenyl)acetyl)piperazin-1-yl)pyridin-3-yl)-2-(4-phenylpiperidin-1-yl)-4-(trifluoromethyl)oxazole-5-carboxamide]
11 to 100 nM	O=C(Nc1ccc(N2CCCN(C(=O)C(O)c3cc(F)cc(F)c3)CC2)nc1)c1oc(N2CCC(c3ccccc3)CC2)nc1C(F)(F)F (centres unmarked) [Compound 202, N-(6-(4-(2-(3,5-difluorophenyl)-2-hydroxyacetyl)-1,4-diazepan-1-yl)pyridin-3-yl)-2-(4-phenylpiperidin-1-yl)-4-(trifluoromethyl)oxazole-5-carboxamide]
101 to 500 nM	CC1CCCN(c2nc(C(F)(F)F)c(C(=O)Nc3ccc(N4CCCN(C(=O)C(O)C(F)(F)F)CC4)nc3)o2)C1 (centres unmarked) [Compound 191, 2-(3-methylpiperidin-1-yl)-N-(6-(4-(3,3,3-trifluoro-2-hydroxypropanoyl)-1,4-diazepan-1-yl)pyridin-3-yl)-4-(trifluoromethyl)oxazole-5-carboxamide]
11 to 100 nM	O=C(O)c1cccc(OCC2CCN(c3ccc(NC(=O)c4oc(N5CCC(c6ccccc6)CC5)nc4C(F)(F)F)cn3)CC2)c1 [Compound 264, 3-((1-(5-(2-(4-phenylpiperidin-1-yl)-4-(trifluoromethyl)oxazole-5-carboxamido)pyridin-2-yl)piperidin-4-yl)methoxy)benzoic acid]
101 to 500 nM	O=C(Nc1ccc(N2CCN(C(=O)C3NCCc4ccccc43)CC2)nc1)c1oc(N2CCC(c3ccccc3)CC2)nc1C(F)(F)F (centres unmarked) [Compound 242, 2-(4-phenylpiperidin-1-yl)-N-(6-(4-(1,2,3,4-tetrahydroisoquinoline-1-carbonyl)piperazin-1-yl)pyridin-3-yl)-4-(trifluoromethyl)oxazole-5-carboxamide]
11 to 100 nM	O=C(O)c1ccc(F)c(OCC2CCN(c3ccc(NC(=O)c4oc(N5CCC(c6ccccc6)CC5)nc4C(F)(F)F)cn3)CC2)c1 [Compound 268, 4-fluoro-3-((1-(5-(2-(4-phenylpiperidin-1-yl)-4-(trifluoromethyl)oxazole-5-carboxamido)pyridin-2-yl)piperidin-4-yl)methoxy)benzoic acid]
101 to 500 nM	O=C(O)c1ccccc1OCC1CCN(c2ccc(NC(=O)c3oc(N4CCC(c5ccccc5)CC4)nc3C(F)(F)F)cn2)CC1 [Compound 266, 2-((1-(5-(2-(4-phenylpiperidin-1-yl)-4-(trifluoromethyl)oxazole-5-carboxamido)pyridin-2-yl)piperidin-4-yl)methoxy)benzoic acid]
11 to 100 nM	O=C(Nc1ccc(N2CCN(C(=O)Cc3ccccc3F)CC2)nc1)c1oc(N2CCC(c3ccccc3)CC2)nc1C(F)(F)F [Compound 225]
101 to 500 nM	O=C(Nc1ccc(N2CCN(C(=O)C3Cc4ccccc4N3)CC2)nc1)c1oc(N2CCC(c3ccccc3)CC2)nc1C(F)(F)F (centres unmarked) [Compound 240, N-(6-(4-(indoline-2-carbonyl)piperazin-1-yl)pyridin-3-yl)-2-(4-phenylpiperidin-1-yl)-4-(trifluoromethyl)oxazole-5-carboxamide]
11 to 100 nM	O=C(Nc1ccc(N2CCN(C(=O)[C@H](O)c3ccccc3)CC2)nc1)c1oc(N2CCC(c3cccc(Cl)c3)C2)nc1C(F)(F)F (stereo partly drawn) [Compound 207, 2-(3-(3-chlorophenyl)pyrrolidin-1-yl)-N-(6-(4-((R)-2-hydroxy-2-phenylacetyl)piperazin-1-yl)pyridin-3-yl)-4-(trifluoromethyl)oxazole-5-carboxamide]
11 to 100 nM	O=C(O)c1cccc(COC2CCN(c3ccc(NC(=O)c4oc(N5CCC(c6ccccc6)CC5)nc4C(F)(F)F)cn3)CC2)c1 [Compound 256, 3-((1-(5-(2-(4-phenylpiperidin-1-yl)-4-(trifluoromethyl)oxazole-5-carboxamido)pyridin-2-yl)piperidin-4-yloxy)methyl)benzoic acid]
101 to 500 nM	Cc1ccccc1NC(=O)c1ccc2c(c1)Cc1cc(NC(=O)c3oc(N4CCCC(C)C4)nc3C(F)(F)F)ccc1-2 (centres unmarked) [Compound 235, 2-(3-methylpiperidin-1-yl)-N-(7-(o-tolylcarbamoyl)-9H-fluoren-2-yl)-4-(trifluoromethyl)oxazole-5-carboxamide]
11 to 100 nM	CC1CCCN(c2nc(C(F)(F)F)c(C(=O)Nc3ccc(N4CCN(c5ccccn5)CC4)nc3)o2)C1 (centres unmarked) [Compound 169, 2-(3-methylpiperidin-1-yl)-N-(6-(4-(pyridin-2-yl)piperazin-1-yl)pyridin-3-yl)-4-(trifluoromethyl)oxazole-5-carboxamide]
101 to 500 nM	CCOC(=O)c1nnc2n1CCN(c1ccc(NC(=O)c3oc(N4CCC(c5ccccc5)CC4)nc3C(F)(F)F)cn1)C2 [Compound 216, Ethyl 5,6,7,8-tetrahydro-7-[5-[[[2-(4-phenyl-1-piperidinyl)-4-(trifluoromethyl)-5-oxazolyl]carbonyl]amino]-2-pyridinyl]-1,2,4-triazolo[4,3-a]pyrazine-3-carboxylate]
101 to 500 nM	CC1CCCN(c2nc(C(F)(F)F)c(C(=O)Nc3ccc(N4CCc5c(cccc5Nc5ccccc5F)C4)nc3)o2)C1 (centres unmarked) [Compound 174, N-(6-(5-(2-fluorophenylamino)-3,4-dihydroisoquinolin-2(1H)-yl)pyridin-3-yl)-2-(3-methylpiperidin-1-yl)-4-(trifluoromethyl)oxazole-5-carboxamide]
11 to 100 nM	CC1CCCN(c2nc(C(F)(F)F)c(C(=O)Nc3ccc(N4CCN(C(=O)[C@H](O)C5CCCCC5)CC4)nc3)o2)C1 (stereo partly drawn) [Compound 196, N-(6-(4-((R)-2-cyclohexyl-2-hydroxyacetyl)piperazin-1-yl)pyridin-3-yl)-2-(3-methylpiperidin-1-yl)-4-(trifluoromethyl)oxazole-5-carboxamide]
